# From patent US9322066B2, “Predictors for cancer treatment” (priority 2011, dated 2016)
# Test system: relapsed or refractory, rituximab-naive or -sensitive follicular B-cell NHL
# Assay: Treatment free interval, Vc-R vs rituximab study, by biomarker
# Format: in vivo, human
# Set-up: Treatment Free Interval, Median: unit not given here
# Settings: for Treatment Free Interval, Evt/N / Treatment Free Interval, Median: IRC Review
# From the text: Non-Hodgkin lymphoma (NHL) encompasses several unique malignant lymphoid disease entities that vary in clinical behavior, morphologic appearance, immunologic, and molecular phenotype. […] A randomized, open-label, active-controlled, multicenter, multinational, prospective study to compare the efficacy and safety of the combination of bortezomib and rituximab (Vc-R) to single-agent rituximab in subjects who have relapsed or refractory, rituximab-naive or -sensitive follicular B-cell NHL was performed.
# Subjects were centrally randomized to Treatment Groups A (Vc-R) or B (rituximab) in a 1:1 ratio taking into account the following stratification factors: • Follicular Lymphoma International Prognostic Index (FLIPI) score (low [0 or 1 factor], intermediate [2 factors], high [≧3 factors]); • Prior rituximab therapy (yes, no); • Time since last dose of anti-lymphoma therapy (≦1 year, >1 year); • Region (United States/Canada, European Union, Rest of World).
# The following clinical endpoints were included in the analysis within each treatment group and an overall comparison was made with the biomarker-related endpoints: Progression-free survival, defined as the interval between the date of randomization and the date of progressive disease (PD) or death, whichever is first reported in the ITT population; overall survival; overall response rate (complete response [CR]+CR unconfirmed [CRu]+partial response [PR]); overall CR rate (CR+CRu); duration of response; time to next anti-lymphoma therapy; and treatment free interval.
# [1] = 20S % NUCLEAR STAINING 0-20, Female
# [2] = 20S % NUCLEAR STAINING 60-70, Male
# [3] = 20S % NUCLEAR STAINING 60-70, Prior Rituximab Therapy
# [4] = 20S INTENSITY CYTOPLASMIC SIGNAL: ≧3+, European Union
# [5] = CD68 OVERALL POSITIVE: 0-25, 2 Prior Lines of Therapy
# [6] = CD68 OVERALL POSITIVE: 0-25, >1 year since last anti-lymphoma treatment
# [7] = CD68 OVERALL POSITIVE: 0-25, Ann Arbor Stage III
# [8] = CD68 OVERALL POSITIVE: 0-25, Ann Arbor Stage IV
# [9] = CD68 OVERALL POSITIVE: 0-25, European Union
# [10] = CD68 OVERALL POSITIVE: 0-25, Female
# [11] = CD68 OVERALL POSITIVE: 0-25, Intermediate FLIPI Score
# [12] = CD68 OVERALL POSITIVE: 0-25, Low FLIPI Score
# [13] = CD68 OVERALL POSITIVE: 0-25, No High Tumor Burden
# [14] = CD68 OVERALL POSITIVE: 0-25, No Prior Rituximab Therapy
# [15] = CD68 OVERALL POSITIVE: 0-25, No Subgroup
# [16] = CD68 OVERALL POSITIVE: 0-25, Prior Rituximab Therapy
# [17] = CD68 OVERALL POSITIVE: 0-25, White
# [18] = CD68 OVERALL POSITIVE: 0-25, ≦65 years old
# [19] = CD68 OVERALL POSITIVE: >75, Male
# [20] = CD68 POSITIVE FOLLICULAR: 0-25, >1 year since last anti-lymphoma treatment
# [21] = CD68 POSITIVE FOLLICULAR: 0-25, Ann Arbor Stage III
# [22] = CD68 POSITIVE FOLLICULAR: 0-25, Asian
# [23] = CD68 POSITIVE FOLLICULAR: 0-25, Female
# [24] = CD68 POSITIVE FOLLICULAR: 0-25, No High Tumor Burden
# [25] = CD68 POSITIVE FOLLICULAR: 0-25, No Prior Rituximab Therapy
# [26] = CD68 POSITIVE FOLLICULAR: 0-25, No Subgroup
# [27] = CD68 POSITIVE FOLLICULAR: 0-25, White
# [28] = CD68 POSITIVE FOLLICULAR: 0-25, ≦65 years old
# [29] = CD68 POSITIVE PERIFOLLICULAR: 0-25, 2 Prior Lines of Therapy
# [30] = CD68 POSITIVE PERIFOLLICULAR: 0-25, >1 year since last anti-lymphoma treatment
# [31] = CD68 POSITIVE PERIFOLLICULAR: 0-25, Ann Arbor Stage IV
# [32] = CD68 POSITIVE PERIFOLLICULAR: 0-25, Female
# [33] = CD68 POSITIVE PERIFOLLICULAR: 0-25, Intermediate FLIPI Score
# [34] = CD68 POSITIVE PERIFOLLICULAR: 0-25, No High Tumor Burden
# [35] = CD68 POSITIVE PERIFOLLICULAR: 0-25, No Prior Rituximab Therapy
# [36] = CD68 POSITIVE PERIFOLLICULAR: 0-25, No Subgroup
# [37] = CD68 POSITIVE PERIFOLLICULAR: 0-25, White
# [38] = CD68 POSITIVE PERIFOLLICULAR: 0-25, ≦65 years old
# [39] = CD68 POSITIVE PERIFOLLICULAR: 26-50, Other
# [40] = CD68 POSITIVE PERIFOLLICULAR: >75, 1 Prior Line of Therapy
# [41] = CD68 POSITIVE PERIFOLLICULAR: >75, European Union
# [42] = CD68 POSITIVE PERIFOLLICULAR: >75, ≦65 years old
# [43] = P27 % NUCLEI POSITIVE: 0-20, 1 Prior Line of Therapy
# [44] = P27 % NUCLEI POSITIVE: 0-20, Ann Arbor Stage III
# [45] = P27 % NUCLEI POSITIVE: 0-20, ≦65 years old
# [46] = P27 % NUCLEI POSITIVE: 30-50, High Tumor Burden
# [47] = P27 SIGNAL INTENSITY: ≦1+, High Tumor Burden
# [48] = P27 SIGNAL INTENSITY: ≧2+, 5 Prior Lines of Therapy
substance,measurement,setting,value
rituximab,"Treatment Free Interval, Evt/N",[1],35/61
same,"Treatment Free Interval, Median",[1],427
same,"Treatment Free Interval, Evt/N",[2],14/16
same,"Treatment Free Interval, Median",[2],110
same,"Treatment Free Interval, Evt/N",[3],17/21
same,"Treatment Free Interval, Median",[3],190
same,"Treatment Free Interval, Evt/N",[4],34/52
same,"Treatment Free Interval, Median",[4],393
same,duration of treatment free interval,Biomarker positive (PSMB1 P11A heterozygote and CD68 Low),10.1 mo
same,"Treatment Free Interval, Evt/N",[5],6/8
same,"Treatment Free Interval, Median",[5],80
same,"Treatment Free Interval, Evt/N",[6],17/26
same,"Treatment Free Interval, Median",[6],269
same,"Treatment Free Interval, Evt/N",[7],12/16
same,"Treatment Free Interval, Median",[7],135
same,"Treatment Free Interval, Evt/N",[8],15/22
same,"Treatment Free Interval, Median",[8],293
same,"Treatment Free Interval, Evt/N",[9],14/22
same,"Treatment Free Interval, Median",[9],234
same,"Treatment Free Interval, Evt/N",[10],16/26
same,"Treatment Free Interval, Median",[10],293
same,"Treatment Free Interval, Evt/N",[11],7/11
same,"Treatment Free Interval, Median",[11],343
same,"Treatment Free Interval, Evt/N",[12],8/10
same,"Treatment Free Interval, Median",[12],281
same,"Treatment Free Interval, Evt/N",[13],8/14
same,"Treatment Free Interval, Median",[13],411
same,"Treatment Free Interval, Evt/N",[14],12/19
same,"Treatment Free Interval, Median",[14],393
same,"Treatment Free Interval, Evt/N",[15],30/44
same,"Treatment Free Interval, Median",[15],269
same,"Treatment Free Interval, Evt/N",[16],18/25
same,"Treatment Free Interval, Median",[16],115
same,"Treatment Free Interval, Evt/N",[17],24/35
same,"Treatment Free Interval, Median",[17],269
same,"Treatment Free Interval, Evt/N",[18],24/34
same,"Treatment Free Interval, Median",[18],234
same,"Treatment Free Interval, Evt/N","CD68 OVERALL POSITIVE: 51-75, No High Tumor Burden",10/25
same,"Treatment Free Interval, Evt/N",[19],8/9
same,"Treatment Free Interval, Median",[19],272
same,"Treatment Free Interval, Evt/N",[20],22/34
same,"Treatment Free Interval, Median",[20],409
same,"Treatment Free Interval, Evt/N",[21],19/24
same,"Treatment Free Interval, Median",[21],190
same,"Treatment Free Interval, Evt/N",[22],5/6
same,"Treatment Free Interval, Median",[22],148
same,"Treatment Free Interval, Evt/N",[23],23/37
same,"Treatment Free Interval, Median",[23],307
same,"Treatment Free Interval, Evt/N",[24],14/22
same,"Treatment Free Interval, Median",[24],432
same,"Treatment Free Interval, Evt/N",[25],23/36
same,"Treatment Free Interval, Median",[25],344
same,"Treatment Free Interval, Evt/N",[26],40/60
same,"Treatment Free Interval, Median",[26],307
same,"Treatment Free Interval, Evt/N",[27],32/48
same,"Treatment Free Interval, Median",[27],307
same,"Treatment Free Interval, Evt/N",[28],33/46
same,"Treatment Free Interval, Median",[28],190
same,"Treatment Free Interval, Evt/N",[29],6/8
same,"Treatment Free Interval, Median",[29],64
same,"Treatment Free Interval, Evt/N",[30],15/24
same,"Treatment Free Interval, Median",[30],393
same,"Treatment Free Interval, Evt/N",[31],11/15
same,"Treatment Free Interval, Median",[31],234
same,"Treatment Free Interval, Evt/N",[32],19/28
same,"Treatment Free Interval, Median",[32],234
same,"Treatment Free Interval, Evt/N",[33],7/13
same,"Treatment Free Interval, Median",[33],361
same,"Treatment Free Interval, Evt/N",[34],8/13
same,"Treatment Free Interval, Median",[34],361
same,"Treatment Free Interval, Evt/N",[35],12/18
same,"Treatment Free Interval, Median",[35],393
same,"Treatment Free Interval, Evt/N",[36],26/39
same,"Treatment Free Interval, Median",[36],234
same,"Treatment Free Interval, Evt/N",[37],19/27
same,"Treatment Free Interval, Median",[37],361
same,"Treatment Free Interval, Evt/N",[38],20/31
same,"Treatment Free Interval, Median",[38],143
same,"Treatment Free Interval, Evt/N",[39],4/4
same,"Treatment Free Interval, Median",[39],217
same,"Treatment Free Interval, Evt/N",[40],15/18
same,"Treatment Free Interval, Median",[40],297
same,"Treatment Free Interval, Evt/N",[41],13/17
same,"Treatment Free Interval, Median",[41],533
same,"Treatment Free Interval, Evt/N",[42],19/23
same,"Treatment Free Interval, Median",[42],297
same,"Treatment Free Interval, Evt/N",[43],19/26
same,"Treatment Free Interval, Median",[43],293
same,"Treatment Free Interval, Evt/N",[44],14/16
same,"Treatment Free Interval, Median",[44],275
same,"Treatment Free Interval, Evt/N",[45],26/34
same,"Treatment Free Interval, Median",[45],187
same,"Treatment Free Interval, Evt/N",[46],17/22
same,"Treatment Free Interval, Median",[46],280
same,"Treatment Free Interval, Evt/N","P27 % NUCLEI POSITIVE: 60-70, 3 Prior Lines of Therapy",1/6
same,"Treatment Free Interval, Evt/N",[47],16/18
same,"Treatment Free Interval, Median",[47],122
same,"Treatment Free Interval, Evt/N",[48],5/6
same,"Treatment Free Interval, Median",[48],88
same,"Treatment Free Interval, Evt/N","P27 SIGNAL INTENSITY: ≧2+, Prior Rituximab Therapy",60/88
